# The source made the active and inactive calls. The calls are words filed in the database; no cut-off is given here.
# Columns and labels:
# Escherichia coli [1] = assay: Antibacterial activity against Escherichia coli JW5503 overexpressing gyrB in presence of IPTG induction after 16 hrs by broth microdilution method; format: functional; settings: JW5503, 16 h
# Escherichia coli [2] = assay: Antibacterial activity against Escherichia coli JW5503 simultaneously overexpressing gyrA/gyrB in presence of IPTG induction after 16 hrs by broth microdilution method; format: functional, organism-based
# [3] = biological target: DNA gyrase (Escherichia coli) (UniProt P0AES6+P0AES4); assay: Inhibition of Escherichia coli DNA gyrase ATPase activity up to 100 uM using DNA as substrate after 60 mins; format: protein-complex assay
# Escherichia coli [4] = assay: Antibacterial activity against Escherichia coli JW5503 transfected with empty vector in absence of IPTG induction after 16 hrs by broth microdilution method; format: functional; settings: JW5503, 16 h
# Escherichia coli [5] = assay: Antibacterial activity against ciprofloxacin-resistant Escherichia coli JW5503 harboring GyrA Ser83Leu mutant after 16 to 18 hrs by broth microdilution method; format: functional
# Escherichia coli [6] = assay: Antibacterial activity against Escherichia coli JW5503 overexpressing gyrB in absence of IPTG induction after 16 hrs by broth microdilution method; format: functional; settings: JW5503, 16 h
# Escherichia coli [7] = assay: Antibacterial activity against Escherichia coli JW5503 overexpressing gyrA/gyrB in absence of IPTG induction after 16 hrs by broth microdilution method; format: functional; settings: JW5503, 16 h
# Escherichia coli [8] = assay: Antibacterial activity against Escherichia coli JW5503 overexpressing gyrA in absence of IPTG induction after 16 hrs by broth microdilution method; format: functional; settings: JW5503, 16 h
# Escherichia coli [9] = assay: Antibacterial activity against Escherichia coli transfected with empty vector
# Escherichia coli [10] = assay: Antibacterial activity against novobiocin-resistant Escherichia coli CC7 harboring GyrB Arg136Ser mutant after 16 to 18 hrs in presence of PAbetaN by broth microdilution method; format: functional
# Escherichia coli [11] = assay: Antibacterial activity against Escherichia coli JW5503 after 16 to 18 hrs by broth microdilution method; format: functional
# Escherichia coli [12] = assay: Antibacterial activity against Escherichia coli JW5503 transfected with empty vector in presence of IPTG induction after 16 hrs by broth microdilution method; format: functional; settings: JW5503, 16 h
# Escherichia coli [13] = assay: Antibacterial activity against novobiocin-resistant Escherichia coli CC5 harboring GyrB Arg136His mutant after 16 to 18 hrs in presence of PAbetaN by broth microdilution method; format: functional
# Escherichia coli [14] = assay: Antibacterial activity against Escherichia coli JW5503 overexpressing gyrA/gyrB in presence of IPTG induction after 16 hrs by broth microdilution method; format: functional; settings: JW5503, 16 h
# Escherichia coli [15] = assay: Antibacterial activity against Escherichia coli JW5503 overexpressing gyrB at 51 ug/ml in presence of IPTG induction after 16 hrs by broth microdilution method; format: functional, organism-based
# Escherichia coli [16] = assay: Antibacterial activity against novobiocin-resistant Escherichia coli LE316 harboring GyrB Arg136Val mutant after 16 to 18 hrs in presence of PAbetaN by broth microdilution method; format: functional
# Escherichia coli [17] = assay: Antibacterial activity against Escherichia coli HB101 after 16 to 18 hrs by broth microdilution method; format: functional
# Escherichia coli [18] = assay: Antibacterial activity against Escherichia coli HB101 after 16 to 18 hrs in presence of PAbetaN by broth microdilution method; format: functional
# Escherichia coli [19] = assay: Ratio of MIC for gyramide-resistant Escherichia coli JW5503 harboring GyrA Ser97Pro mutant to MIC for Escherichia coli JW5503; format: functional
# Enterococcus faecalis = assay: Antibacterial activity against Enterococcus faecalis after 16 to 18 hrs by broth microdilution method; format: functional
# Klebsiella pneumoniae = assay: Antibacterial activity against Klebsiella pneumoniae after 16 to 18 hrs by broth microdilution method; format: functional
# Bacillus cereus = assay: Antibacterial activity against Bacillus cereus after 16 to 18 hrs by broth microdilution method; format: functional
# Escherichia coli [20] = assay: Antibacterial activity against gyramide-resistant Escherichia coli JW5503 harboring GyrA Pro35Thr mutant after 16 to 18 hrs by broth microdilution method; format: functional
# Escherichia coli [21] = assay: Ratio of MIC for ciprofloxacin-resistant Escherichia coli JW5503 harboring GyrA Asp87Gly mutant to MIC for Escherichia coli JW5503; format: functional
# Pseudomonas aeruginosa = assay: Antibacterial activity against Pseudomonas aeruginosa after 16 to 18 hrs by broth microdilution method; format: functional
# Shigella flexneri = assay: Antibacterial activity against Shigella flexneri after 16 to 18 hrs by broth microdilution method; format: functional
# Escherichia coli [22] = assay: Antibacterial activity against gyramide-resistant Escherichia coli JW5503 harboring GyrB Thr508Met mutant after 16 to 18 hrs by broth microdilution method; format: functional
# Enterococcus faecium = assay: Antibacterial activity against Enterococcus faecium after 16 to 18 hrs by broth microdilution method; format: functional
# Streptococcus agalactiae = assay: Antibacterial activity against Streptococcus agalactiae after 16 to 18 hrs by broth microdilution method; format: functional
# Escherichia coli [23] = assay: Antibacterial activity against ciprofloxacin-resistant Escherichia coli JW5503 harboring GyrA Asp87Gly mutant after 16 to 18 hrs by broth microdilution method; format: functional
# Escherichia coli [24] = assay: Ratio of MIC for ciprofloxacin-resistant Escherichia coli JW5503 harboring GyrA Asp87Tyr mutant to MIC for Escherichia coli JW5503; format: functional
# Escherichia coli [25] = assay: Ratio of MIC for gyramide-resistant Escherichia coli JW5503 harboring GyrA Pro35Thr mutant to MIC for Escherichia coli JW5503; format: functional
# [26] = test system: Staphylococcus saprophyticus; assay: Antibacterial activity against Staphylococcus saprophyticus clinical isolate after 16 to 18 hrs by broth microdilution method; format: functional
# Escherichia coli [27] = assay: Ratio of MIC for novobiocin-resistant Escherichia coli CC5 harboring GyrB Arg136His mutant to MIC for Escherichia coli HB101; format: functional
# Staphylococcus aureus = assay: Antibacterial activity against Staphylococcus aureus subsp. aureus clinical isolate after 16 to 18 hrs by broth microdilution method; format: functional
# Escherichia coli [28] = assay: Ratio of MIC for ciprofloxacin-resistant Escherichia coli JW5503 harboring GyrA Ser83Leu mutant to MIC for Escherichia coli JW5503; format: functional
# Edwardsiella tarda = assay: Antibacterial activity against Edwardsiella tarda clinical isolate after 16 to 18 hrs by broth microdilution method; format: functional
# Streptococcus pyogenes = assay: Antibacterial activity against Streptococcus pyogenes after 16 to 18 hrs by broth microdilution method; format: functional
# Escherichia coli [29] = assay: Ratio of MIC for gyramide-resistant Escherichia coli JW5503 harboring GyrB Ser464Phe mutant to MIC for Escherichia coli JW5503; format: functional
# Escherichia coli [30] = assay: Ratio of MIC for novobiocin-resistant Escherichia coli CC7 harboring GyrB Arg136Ser mutant to MIC for Escherichia coli HB101; format: functional
# Escherichia coli [31] = assay: Antibacterial activity against Escherichia coli BW25113 after 16 to 18 hrs by broth microdilution method; format: functional
# Bacillus subtilis = assay: Antibacterial activity against Bacillus subtilis after 16 to 18 hrs by broth microdilution method; format: functional
# DNA gyrase = DNA gyrase (Escherichia coli, UniProt P0AES4+P0AES6); assay: Inhibition of Escherichia coli DNA gyrase assessed as inhibition of pUC19 supercoiling after 30 mins by agarose gel electrophoresis; format: protein-complex assay
# Morganella morganii = assay: Antibacterial activity against Morganella morganii clinical isolate after 16 to 18 hrs by broth microdilution method; format: functional
# Escherichia coli [32] = assay: Antibacterial activity against ciprofloxacin-resistant Escherichia coli JW5503 harboring GyrA Asp87Tyr mutant after 16 to 18 hrs by broth microdilution method; format: functional
# Escherichia coli [33] = assay: Ratio of MIC for novobiocin-resistant Escherichia coli LE316 harboring GyrB Arg136Val mutant to MIC for Escherichia coli HB101; format: functional
# Escherichia coli [34] = assay: Antibacterial activity against Escherichia coli UPEC after 16 to 18 hrs by broth microdilution method; format: functional
# Escherichia coli [35] = assay: Antibacterial activity against Escherichia coli MC4100 after 16 to 18 hrs by broth microdilution method; format: functional
# Escherichia coli [36] = assay: Antibacterial activity against Escherichia coli BAS849 after 16 to 18 hrs by broth microdilution method; format: functional
# Escherichia coli [37] = assay: Ratio of MIC for gyramide-resistant Escherichia coli JW5503 harboring GyrA His45Tyr mutant to MIC for Escherichia coli JW5503; format: functional
# Escherichia coli [38] = assay: Ratio of MIC for gyramide-resistant Escherichia coli JW5503 harboring GyrA Phe96Leu mutant to MIC for Escherichia coli JW5503; format: functional
# Escherichia coli [39] = assay: Antibacterial activity against ciprofloxacin-resistant Escherichia coli JW5503 harboring GyrB Ser464Phe mutant after 16 to 18 hrs by broth microdilution method; format: functional
# Acinetobacter baumannii = assay: Antibacterial activity against Acinetobacter baumannii clinical isolate after 16 to 18 hrs by broth microdilution method; format: functional
# Escherichia coli [40] = assay: Ratio of MIC for ciprofloxacin-resistant Escherichia coli JW5503 harboring GyrB Ser464Phe mutant to MIC for Escherichia coli JW5503; format: functional
# Escherichia coli [41] = assay: Antibacterial activity against gyramide-resistant Escherichia coli JW5503 harboring GyrA His45Tyr mutant after 16 to 18 hrs by broth microdilution method; format: functional
# Klebsiella aerogenes = assay: Antibacterial activity against Enterobacter aerogenes clinical isolate after 16 to 18 hrs by broth microdilution method; format: functional
# Escherichia coli [42] = assay: Antibacterial activity against gyramide-resistant Escherichia coli JW5503 harboring GyrA Phe96Leu mutant after 16 to 18 hrs by broth microdilution method; format: functional
# [43] = test system: Staphylococcus epidermidis; assay: Antibacterial activity against Staphylococcus epidermidis clinical isolate after 16 to 18 hrs by broth microdilution method; format: functional
# Escherichia coli [44] = assay: Antibacterial activity against gyramide-resistant Escherichia coli JW5503 harboring GyrA Ser97Pro mutant after 16 to 18 hrs by broth microdilution method; format: functional
# Salmonella typhimurium = assay: Antibacterial activity against Salmonella enterica subsp. enterica serovar Typhimurium after 16 to 18 hrs by broth microdilution method; format: functional
# [45] = Ratio of MIC for Escherichia coli BW25113 to MIC for Escherichia coli JW5503; format: functional
smiles,measurement,setting,value
O=C(O)c1cn(C2CC2)c2cc(N3CCNCC3)c(F)cc2c1=O [CIPROFLOXACIN],MIC,Escherichia coli [1],0.0021 µg/mL
same,Activity,Escherichia coli [2],Active
same,inhibition,[3],inactive
same,MIC,Escherichia coli [4],0.0021 µg/mL
same,MIC,Escherichia coli [5],0.0064 µg/mL
same,MIC,Escherichia coli [6],0.0021 µg/mL
same,MIC,Escherichia coli [7],0.0021 µg/mL
same,MIC,Escherichia coli [8],0.0021 µg/mL
same,MIC,Escherichia coli [9],0.009 µg/mL
CO[C@@H]1[C@@H](OC(N)=O)[C@@H](O)[C@H](Oc2ccc3c(O)c(NC(=O)c4ccc(O)c(CC=C(C)C)c4)c(=O)oc3c2C)OC1(C)C [NOVOBIOCIN],MIC,Escherichia coli [1],6.3 µg/mL
same,MIC,Escherichia coli [10],6.4 µg/mL
same,MIC,Escherichia coli [11],0.8 µg/mL
same,MIC,Escherichia coli [12],0.4 µg/mL
same,MIC,Escherichia coli [13],102 µg/mL
same,MIC,Escherichia coli [4],0.4 µg/mL
same,MIC,Escherichia coli [14],3.2 µg/mL
same,Activity,Escherichia coli [15],inactive
same,MIC,Escherichia coli [16],12.8 µg/mL
same,MIC,Escherichia coli [17],> 100 µg/mL
same,MIC,Escherichia coli [18],3.2 µg/mL
Cc1ccc(C#N)cc1S(=O)(=O)N[C@@H]1CCN(Cc2ccc(-c3ccccc3)cc2)C1,Ratio,Escherichia coli [19],10 - 100
same,MIC,Enterococcus faecalis,> 16 µg/mL
same,MIC,Klebsiella pneumoniae,> 16 µg/mL
same,MIC,Bacillus cereus,> 16 µg/mL
same,MIC,Escherichia coli [20],5.4 µg/mL
same,Ratio,Escherichia coli [21],2 - 4
same,MIC,Pseudomonas aeruginosa,> 16 µg/mL
same,MIC,Shigella flexneri,4 µg/mL
same,MIC,Escherichia coli [22],1.3 µg/mL
same,MIC,Escherichia coli [11],0.1 µg/mL
same,MIC,Enterococcus faecium,> 16 µg/mL
same,MIC,Streptococcus agalactiae,> 16 µg/mL
same,MIC,Escherichia coli [23],0.2 µg/mL
same,Ratio,Escherichia coli [24],2 - 4
same,Ratio,Escherichia coli [25],10 - 100
same,MIC,[26],> 16 µg/mL
same,Ratio,Escherichia coli [27],2 - 4
same,MIC,Staphylococcus aureus,> 16 µg/mL
same,inhibition,[3],inactive
same,Ratio,Escherichia coli [28],2 - 4
same,MIC,Edwardsiella tarda,8 µg/mL
same,MIC,Streptococcus pyogenes,> 16 µg/mL
same,Ratio,Escherichia coli [29],10 - 100
same,Ratio,Escherichia coli [30],2 - 4
same,MIC,Escherichia coli [31],8 µg/mL
same,MIC,Bacillus subtilis,> 16 µg/mL
same,IC50,DNA gyrase,47 nM
same,MIC,Morganella morganii,> 16 µg/mL
same,MIC,Escherichia coli [32],0.1 µg/mL
same,Ratio,Escherichia coli [33],2 - 4
same,MIC,Escherichia coli [34],> 16 µg/mL
same,MIC,Escherichia coli [35],8 µg/mL
same,MIC,Escherichia coli [36],0.5 µg/mL
same,Ratio,Escherichia coli [37],10 - 100
same,Ratio,Escherichia coli [38],10 - 100
same,MIC,Escherichia coli [39],0.4 µg/mL
same,MIC,Acinetobacter baumannii,> 16 µg/mL
same,Ratio,Escherichia coli [40],2 - 4
same,MIC,Escherichia coli [41],22 µg/mL
same,MIC,Klebsiella aerogenes,> 16 µg/mL
same,MIC,Escherichia coli [42],2.7 µg/mL
same,MIC,[43],> 16 µg/mL
same,MIC,Escherichia coli [44],22 µg/mL
same,MIC,Escherichia coli [16],0.2 µg/mL
same,MIC,Escherichia coli [17],1 µg/mL
same,MIC,Salmonella typhimurium,2 µg/mL
same,Ratio,[45],80
